According to patent publication US4668621A, “Detecting blood clotting factors with immobilized fibrinogen and labeled fibrinogen” (Wake Forest University, priority 1985, dated 1987):

What was measured:
thrombin = biological target: T1, thrombin (Homo sapiens, UniProt P00734); test: Inhibition of thrombin in the solid-phase thrombin assay; format: biochemical; details: 80 min assay
T1 construct: additional factors necessary for cleavage of prothrombin to thrombin
Method: (§1) In the first assay, microtiter plates were coated with 150 μl per well of 50 μg/ml of fibrinogen in 10 mM Tris-acetate buffered saline, pH 7.6 (TABS) containing 10 mM EDTA overnight at 4° C. The solution was removed from the plate, and 100 μl of a 10 μg/ml solution of peroxidase-fibrinogen in 3.8 mg/ml bovine serum albumin (BSA) in TABS containing 10 mM calcium chloride was added to the well. 50 μl of thrombin diluted from 0.1 to 0.00078 NIH units/ml (30-0.25 ng/ml) was added to each well for various times from 0-160 min, after which the solution was washed from the plate. Peroxidase assay was performed using ortho-phenylenediamine as the indicator dye, with 11 min of incubation.
In the next assay, benzamidine and D-phenylalanyl-L-prolyl-L-arginine chloromethyl ketone (PPACK) were added to thrombin at the start of the assay. […] The percent inhibition can be calculated from the increased thrombin concentration required to obtain equivalent activity, as
% inhibition=100 * (1-To/Ti)
where To is the thrombin concentration yielding an O.D.=1 in the absence of inhibitor, and Ti is the thrombin concentration yielding an O.D.=1 in the presence of a given inhibitor concentration.

fibrinogen = test: Thrombin assay: peroxidase-fibrinogen bound to fibrinogen-coated microtiter plate; format: biochemical, human; details: for [Thrombin] for O.D. = 1: unit not printed here (preceding table: NIH units/ml)
Method: This was prepared by the method of Nakane and Kawaoi (J. Histochem. Cytochem (1974) 22:1084) using 40 mg of horseradish peroxidase and 300 mg of human fibrinogen. The molar ratio of peroxidase to fibrinogen in the final product was 0.39. This was diluted with unlabeled fibrinogen to a concentration of 0.72 mg/ml of fibrinogen with a molar ratio of 0.12 moles of peroxidase per mole of fibrinogen, stored in 50% glycerol at -20° C.
as §1, with “incubation. Optical density was measured at 490 nm using a microtiter plate reader, with the following results:” for “incubation.”
Not only the endpoint (O.D.>2), but also the partial reaction ([…])can be used as a measure of thrombin activity. The penultimate value prior to the endpoint, or an approximate extrapolation to the concentration of thrombin yielding an O.D. value of 1 can be used to standardize this assay. For the above experiment, this value is reached at thrombin concentrations of: […]

With N=C(N)NCCC[C@H](NC(=O)[C@@H]1CCCN1C(=O)[C@H](N)Cc1ccccc1)C(=O)CCl [PPACK, D-phenylalanyl-L-prolyl-L-arginine chloromethyl ketone] the “% Inhibition” value (thrombin; [PPACK] .005 nM) was 11%, the “% Inhibition” value (thrombin; [PPACK] .01 nM) was 19% and the “% Inhibition” value (thrombin; [PPACK] .02 nM) was 43%. The “% Inhibition” value (thrombin; [PPACK] .05 nM) was 62%, the “% Inhibition” value (thrombin; [PPACK] .1 nM) was 79% and the “% Inhibition” value (thrombin; [PPACK] .2 nM) was 83%. The “% Inhibition” value (thrombin; [PPACK] .5 nM) was 95%.
In the case of Thrombin, the “[Thrombin] for O.D. = 1” value (fibrinogen; incubation time 10 min) is reported as over 0.03, the “[Thrombin] for O.D. = 1” value (fibrinogen; incubation time 20 min) is reported as 0.02 and the “[Thrombin] for O.D. = 1” value (fibrinogen; incubation time 40 min) is reported as 0.005. For the same compound, the “[Thrombin] for O.D. = 1” value (fibrinogen; incubation time 80 min) was 0.002, the “[Thrombin] for O.D. = 1” value (fibrinogen; incubation time 160 min) was 0.0008 and the “Optical density at 490 nm” value (fibrinogen; thrombin .00026 NIH units/ml, incubation 0 min) was 0.20. For the same compound, the “Optical density at 490 nm” value (fibrinogen; thrombin .00026 NIH units/ml, incubation 10 min) was 0.24, the “Optical density at 490 nm” value (fibrinogen; thrombin .00026 NIH units/ml, incubation 20 min) was 0.19 and the “Optical density at 490 nm” value (fibrinogen; thrombin .00026 NIH units/ml, incubation 40 min) was 0.25. For the same compound, the “Optical density at 490 nm” value (fibrinogen; thrombin .00026 NIH units/ml, incubation 80 min) was 0.32, the “Optical density at 490 nm” value (fibrinogen; thrombin .00026 NIH units/ml, incubation 160 min) was 0.24 and the “Optical density at 490 nm” value (fibrinogen; thrombin .0005 NIH units/ml, incubation 0 min) was 0.21. For the same compound, the “Optical density at 490 nm” value (fibrinogen; thrombin .0005 NIH units/ml, incubation 10 min) was 0.21, the “Optical density at 490 nm” value (fibrinogen; thrombin .0005 NIH units/ml, incubation 20 min) was 0.16 and the “Optical density at 490 nm” value (fibrinogen; thrombin .0005 NIH units/ml, incubation 40 min) was 0.14. The “Optical density at 490 nm” value (fibrinogen; thrombin .0005 NIH units/ml, incubation 80 min) was 0.18, the “Optical density at 490 nm” value (fibrinogen; thrombin .0005 NIH units/ml, incubation 160 min) was 0.60 and the “Optical density at 490 nm” value (fibrinogen; thrombin .0010 NIH units/ml, incubation 0 min) was 0.22. For the same compound, the “Optical density at 490 nm” value (fibrinogen; thrombin .0010 NIH units/ml, incubation 10 min) was 0.15, the “Optical density at 490 nm” value (fibrinogen; thrombin .0010 NIH units/ml, incubation 20 min) was 0.18 and the “Optical density at 490 nm” value (fibrinogen; thrombin .0010 NIH units/ml, incubation 40 min) was 0.23. The “Optical density at 490 nm” value (fibrinogen; thrombin .0010 NIH units/ml, incubation 80 min) was 0.37, the “Optical density at 490 nm” value (fibrinogen; thrombin .0010 NIH units/ml, incubation 160 min) was 1.55 and the “Optical density at 490 nm” value (fibrinogen; thrombin .0021 NIH units/ml, incubation 0 min) was 0.25. The “Optical density at 490 nm” value (fibrinogen; thrombin .0021 NIH units/ml, incubation 10 min) was 0.18, the “Optical density at 490 nm” value (fibrinogen; thrombin .0021 NIH units/ml, incubation 20 min) was 0.18 and the “Optical density at 490 nm” value (fibrinogen; thrombin .0021 NIH units/ml, incubation 40 min) was 0.18. For the same compound, the “Optical density at 490 nm” value (fibrinogen; thrombin .0021 NIH units/ml, incubation 80 min) was 1.02, the “Optical density at 490 nm” value (fibrinogen; thrombin .0021 NIH units/ml, incubation 160 min) was over 2 and the “Optical density at 490 nm” value (fibrinogen; thrombin .0042 NIH units/ml, incubation 0 min) was 0.23. For the same compound, the “Optical density at 490 nm” value (fibrinogen; thrombin .0042 NIH units/ml, incubation 10 min) was 0.22, the “Optical density at 490 nm” value (fibrinogen; thrombin .0042 NIH units/ml, incubation 20 min) was 0.26 and the “Optical density at 490 nm” value (fibrinogen; thrombin .0042 NIH units/ml, incubation 40 min) was 0.87. The “Optical density at 490 nm” value (fibrinogen; thrombin .0042 NIH units/ml, incubation 80 min) was over 2, the “Optical density at 490 nm” value (fibrinogen; thrombin .0042 NIH units/ml, incubation 160 min) was over 2 and the “Optical density at 490 nm” value (fibrinogen; thrombin .0083 NIH units/ml, incubation 0 min) was 0.30. For the same compound, the “Optical density at 490 nm” value (fibrinogen; thrombin .0083 NIH units/ml, incubation 10 min) was 0.42, the “Optical density at 490 nm” value (fibrinogen; thrombin .0083 NIH units/ml, incubation 20 min) was 0.40 and the “Optical density at 490 nm” value (fibrinogen; thrombin .0083 NIH units/ml, incubation 40 min) was 1.67. For the same compound, the “Optical density at 490 nm” value (fibrinogen; thrombin .0083 NIH units/ml, incubation 80 min) was over 2, the “Optical density at 490 nm” value (fibrinogen; thrombin .0083 NIH units/ml, incubation 160 min) was over 2 and the “Optical density at 490 nm” value (fibrinogen; thrombin .017 NIH units/ml, incubation 0 min) was 0.31. For the same compound, the “Optical density at 490 nm” value (fibrinogen; thrombin .017 NIH units/ml, incubation 10 min) was 0.30, the “Optical density at 490 nm” value (fibrinogen; thrombin .017 NIH units/ml, incubation 20 min) was 0.91 and the “Optical density at 490 nm” value (fibrinogen; thrombin .017 NIH units/ml, incubation 40 min) was over 2. For the same compound, the “Optical density at 490 nm” value (fibrinogen; thrombin .017 NIH units/ml, incubation 80 min) was over 2, the “Optical density at 490 nm” value (fibrinogen; thrombin .017 NIH units/ml, incubation 160 min) was over 2 and the “Optical density at 490 nm” value (fibrinogen; thrombin .033 NIH units/ml, incubation 0 min) was 0.41. For the same compound, the “Optical density at 490 nm” value (fibrinogen; thrombin .033 NIH units/ml, incubation 10 min) was 0.52, the “Optical density at 490 nm” value (fibrinogen; thrombin .033 NIH units/ml, incubation 20 min) was 1.24 and the “Optical density at 490 nm” value (fibrinogen; thrombin .033 NIH units/ml, incubation 40 min) was over 2. For the same compound, the “Optical density at 490 nm” value (fibrinogen; thrombin .033 NIH units/ml, incubation 80 min) was over 2 and the “Optical density at 490 nm” value (fibrinogen; thrombin .033 NIH units/ml, incubation 160 min) was over 2.
N=C(N)c1ccccc1 [Benzamidine, benzamidine] was tested, and the “% Inhibition” value (thrombin; [Benzamidine] 0.5 mM) was 8%, the “% Inhibition” value (thrombin; [Benzamidine] 1 mM) was 41% and the “% Inhibition” value (thrombin; [Benzamidine] 2 mM) was 55%. For the same compound, the “% Inhibition” value (thrombin; [Benzamidine] 5 mM) was 75%, the “% Inhibition” value (thrombin; [Benzamidine] 10 mM) was 84% and the “% Inhibition” value (thrombin; [Benzamidine] 20 mM) was 97%.
